Laboratory results: patent USRE48175E1, “Hydrophobically tagged small molecules as inducers of protein degradation” (Dana-Farber Cancer Institute, Inc., priority 2012, dated 2020)

Tests used:
[1] = biological target: T1, ErbB3(667-1053) protein (Her3) (Homo sapiens, UniProt P21860); experiment: LanthaScreen Eu kinase binding assay (Her3 ATP-site binding); settings: binding to the ATP-site of Her3
T1 construct: Purified ErbB3(667-1053) protein was obtained from Invitrogen; purchased Invitrogen
T1 sequence (P21860 667-1053): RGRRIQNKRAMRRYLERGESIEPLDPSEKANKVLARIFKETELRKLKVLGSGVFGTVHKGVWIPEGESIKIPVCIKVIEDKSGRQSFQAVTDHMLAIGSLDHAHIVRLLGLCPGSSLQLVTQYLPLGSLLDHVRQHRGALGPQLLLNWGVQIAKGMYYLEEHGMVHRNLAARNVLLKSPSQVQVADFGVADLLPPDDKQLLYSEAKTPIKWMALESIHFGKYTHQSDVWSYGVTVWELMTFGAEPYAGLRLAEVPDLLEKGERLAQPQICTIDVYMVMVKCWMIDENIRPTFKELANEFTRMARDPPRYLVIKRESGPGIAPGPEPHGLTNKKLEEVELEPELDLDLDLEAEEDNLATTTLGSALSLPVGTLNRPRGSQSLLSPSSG
Description: To discover chemical starting points for developing Her3 inhibitors, the inventors screened a library of 1,500 kinase-directed compounds using the LanthaScreen™ Eu methodology for compounds that could bind to the ATP-site of Her3. […] See, e.g., Stachlewitz et al., J Pharmacol Exp Ther. (2005) 315:36-41.
FIG. 2 depicts binding affinity data for exemplary compounds of Formula (II). Binding affinity (IC50) was measured by Invitrogen LanthaScreen™ Eu kinase binding assay which is based on the binding and displacement of Alexa Fluor 647 labeled ATP-competitive kinase inhibitor scaffold (Kinase Tracer 178). Binding of the tracer to the kinase is detected using a europium-labeled anti-tag antibody (anti-GST). The binding of both the tracer and antibody to the kinase results in a high degree of FRET (fluorescenece resonance energy transfer) from the europium donor fluorophore to the Alexa Fluor 647 acceptor fluoropore on the kinase tracer. […] This centrifugation step will eliminate spurious data points that can arise on occasion due to any particulates in the product. • (3) Add 5 ul the mixture of ErbB3 protein and Eu-anti-GST to 5 ul test compound solution per well in coming 384 plates. • (4) Add 5 ul tracer 178 at concentration of 39 nM per well. • (5) Incubate for 3 hours at 4° C. and read plate with Perkin Elmer EnVision. […]

[2] = tested on: downstream effectors of Her3, such as Erk and Akt; experiment: Phosphorylation of downstream effectors of Her3 (Erk, Akt) in cells; format: cell-based; settings: TX2-62-1 formed inside the cell from TX2-49-1 and TX2-57-1 via oxime formation
Description: (§1) Without wishing to be bound by any particular theory, the inventors hypothesize that this lack of inhibition is the result of poor cell penetration of TX2-62-1 due to its high molecular weight (MW=828.5). The inventors tested this hypothesis by designing a strategy whereby the two halves of TX2-62-1 (TX2-49-1 and TX2-57-1) were brought together inside of a cell via oxime formation. See Scheme 1 below.
(§2) PC9 Gefitinib Resistant 4 (GR4) cells were cultured in 60 mm plate with 10% fetal bovine serum (FBS), Roswell Park Memorial Institute medium (RPMI) medium. When the confluence reached 80%, cells were treated with compounds in indicated concentration. After 4 hours, wash cells with medium for three times. Cells were cultured for another 4 hours, followed by 3 times PBS washes. Cells were lysed with lysis buffer (25 mM Tris-HCl pH 7.4, 150 mM NaCl, 1 mM EDTA, 1% NP-40, 5% glycerol, Roche PhosSTOP phosphatase inhibitor cocktail tablets and Roche Complete Protease inhibitor cocktail tablets). […]
(§3) With the spectrophotometer set to 562 nm, zero the instrument on a cuvette filled only with water. Subsequently, measure the absorbance of all the samples with 10 minutes. Subtract the average 562 nm absorbance measurement of the Blank standard replicates from the 562 nm absorbance measurement of all other individual standard and unknown sample replicates. […]

[3] = tested on: Her3-addicted cells; experiment: Her3-dependent growth / viability of Her3-addicted cells; format: cell-based
Excerpt: as §1
FIG. 3 depicts anti-proliferation data for exemplary compounds of Formula (II). The anti-proliferation assay was carried out by using 96 well white bottom plates. 2000-4000 cells were seeded per well, and the medium volume per well was about 100 ul. Incubate for 3 days after adding and titrating indicated concentration of compounds. The cell viability was test by CellTiter-Glo® Luminescent Assay. In a typical experiment, add 10 ul CellTiter-Glo® reagent per well. Mix and shake the plate for 2 minutes to induce cell lysis at room temperature. Allow the plate to incubate at room temperature for approximately 10 minutes to stabilize luminescent signal. Read plate with Perkin Elmer EnVision. The cell numbers were normalized by the DMSO control. And the EC50s were calculated by GraphPad Prism.

[4] = biological target: T2, Her3 (Homo sapiens, UniProt P21860); experiment: Her3 protein degradation in cells; format: cell-based
T2 construct: endogenous in cells; host or cells: PC9 GR4
T2 sequence (P21860 20-1342): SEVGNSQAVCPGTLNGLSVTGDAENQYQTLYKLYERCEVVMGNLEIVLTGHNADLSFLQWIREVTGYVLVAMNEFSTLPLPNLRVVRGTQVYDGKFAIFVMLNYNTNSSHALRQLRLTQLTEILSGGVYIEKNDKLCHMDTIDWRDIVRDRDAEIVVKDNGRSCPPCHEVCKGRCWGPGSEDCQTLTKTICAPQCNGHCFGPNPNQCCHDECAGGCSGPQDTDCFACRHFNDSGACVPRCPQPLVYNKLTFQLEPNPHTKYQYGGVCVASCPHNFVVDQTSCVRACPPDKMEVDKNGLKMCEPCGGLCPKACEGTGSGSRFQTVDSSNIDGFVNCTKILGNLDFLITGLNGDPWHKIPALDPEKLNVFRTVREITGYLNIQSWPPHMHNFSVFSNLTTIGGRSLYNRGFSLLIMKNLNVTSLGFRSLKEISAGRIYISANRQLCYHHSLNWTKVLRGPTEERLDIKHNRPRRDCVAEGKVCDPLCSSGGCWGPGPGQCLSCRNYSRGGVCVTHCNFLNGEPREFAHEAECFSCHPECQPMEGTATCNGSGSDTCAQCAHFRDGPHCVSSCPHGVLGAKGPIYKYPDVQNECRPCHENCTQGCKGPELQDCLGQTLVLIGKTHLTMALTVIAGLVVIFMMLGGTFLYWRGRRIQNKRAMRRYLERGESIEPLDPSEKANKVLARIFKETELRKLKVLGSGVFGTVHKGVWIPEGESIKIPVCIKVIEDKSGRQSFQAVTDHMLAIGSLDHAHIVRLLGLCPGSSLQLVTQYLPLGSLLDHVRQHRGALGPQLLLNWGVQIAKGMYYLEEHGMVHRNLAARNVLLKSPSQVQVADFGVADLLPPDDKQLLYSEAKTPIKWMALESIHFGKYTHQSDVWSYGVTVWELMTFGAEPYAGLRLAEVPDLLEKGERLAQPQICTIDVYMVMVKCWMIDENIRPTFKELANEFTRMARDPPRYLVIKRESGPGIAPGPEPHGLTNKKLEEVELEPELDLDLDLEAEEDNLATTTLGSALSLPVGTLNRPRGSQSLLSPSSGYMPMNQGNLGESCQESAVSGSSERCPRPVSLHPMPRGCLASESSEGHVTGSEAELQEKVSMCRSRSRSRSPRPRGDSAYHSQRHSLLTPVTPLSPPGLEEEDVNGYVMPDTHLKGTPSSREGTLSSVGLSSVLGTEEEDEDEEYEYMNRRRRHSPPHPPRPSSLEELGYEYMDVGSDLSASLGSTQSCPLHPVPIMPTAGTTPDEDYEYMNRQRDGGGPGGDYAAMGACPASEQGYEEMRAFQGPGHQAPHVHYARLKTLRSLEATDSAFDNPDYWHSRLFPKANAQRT
Description: as §1, §2, §3

[5] = TX2-62-1 formed inside the cell from TX2-49-1 and TX2-57-1 via oxime formation

SMILES | Her3 binding [1] | inhibition of Her3-dependent signaling [2] | viability of Her3-addicted cells [3, 5] | cell proliferation after washout ([3]; after TX2-62-1 was washed out) | inhibition of Her3-dependent growth ([3]; compound added as preformed molecule) | degradation of Her3 [4, 5] | Her3 protein level after washout ([4]; after TX2-62-1 was washed out)
COc1cc(-c2nn(C3CCC(N4CCN(C(C)=O)CC4)CC3)c3ncnc(N)c23)ccc1NC(=O)c1cc2ccccc2n1C (centres unmarked) [KIN001-111, reference compound] | most potent Her3 binder |  |  |  |  |  | 
C=CC(=O)Nc1cc(-c2nn(C3CCC(N4CCN(C/C(C)=N/OCCNC(=O)CC5C6CC7CC(C6)CC5C7)CC4)CC3)c3ncnc(N)c23)ccc1Oc1ccccc1 (centres unmarked) [TX2-62-1] | maintained potent and covalent Her3 binding ability | inhibition of Her3-dependent signaling | loss of viability of Her3-addicted cells | cell proliferation resumed | did not inhibit Her3-dependent growth | efficient degradation of Her3 | Her3 protein was resynthesized
